In patent US5380759A, “Methyl N-[6-(3,4,5-trimethoxybenzloxy)imidazo[1,2-b]pyridazin-2-zyl]carbamate used to treat leukemia” (priority 1987, dated 1995):

Tests used:
[1] = system: P388/MTX; assay: In vivo activity against drug resistant tumour P388/MTX; set-up: species or system mouse; details: optimum dose 7.5 mg/kg
Description: (§1) CD2-F1 mice, of the same sex, weighing within a 3 gram range surrounding 20 g, are used for this test. Control and test animals are injected intraperitoneally with a suspension of 10^6 viable P388/O tumour cells on day 0. In each test several dose levels which bracket the LD20 for the compound are evaluated; each dose level group contains 6 animals. The test compounds are prepared either in physiologic saline containing 0.05% Tween 80 or distilled water containing 5% dextrose and are administered intraperitoneally on days 1,5 and 9 relative to tumour implant. Doses are on a mg/kg basis according to individual animals' body weights. The day of death for each animal is recorded and the median day of death identified for each group. The difference between the median survival time for treated and control groups is expressed as a percentage increase in life span (% ILS).
(§2) E. Activity Against Drug-Resistant Tumours
(§3) Using a similar procedure to the Lymphocytic Leukaemia P388/O test, the compound of Example 1 was evaluated against P388/O tumours which had been made resistant to the following standard, clinically used anti-tumour agents: […]

[2] = system: P388/5FU; assay: In vivo activity against drug resistant tumour P388/5FU; set-up: species or system mouse; details: optimum dose 10.0 mg/kg
Description: as §1, §2, §3

[3] = system: WiDr human colon adenocarcinoma cells; assay: In vitro activity against human tumour cell line WiDr (proliferation); type: cell-based; details: 96 h, MTT, read-out: IC50
Description: Cells from the human tumour cell lines DLD-1, HCT-116, WiDr and A549 are exposed to serially diluted concentrations of test compounds over a 96 hour period in culture. The ability of such cells to proliferate over the test period is determined.
Cells in log growth are plated into 96 well multiwell tissue culture dishes in 100 μl/well of RPMI 1640 culture medium supplemented with 10% foetal calf serum, antibiotics and test compound. All compounds are formulated initially at appropriate concentrations in DMSO, the final concentrations in this solvent being twenty times that required in the plate. A final 1 in 10 dilution in complete medium is then made before adding 100 μl to each well of the plate. All compounds are evaluated at concentrations ranging serially in four fold decrements from a top concentration some four fold greater than that already known to inhibit the proliferation of cells from the mouse lymphoid neoplasm, P388D1 by about 80 to 90 percent in a primary proliferative assay.
After 96 hours the proliferation of cells exposed to test compound is compared with control untreated cells by one of two methods:
b) 20 μl of MTT (5 mg/ml in PBS) is added to each well. After an incubation period of 4 hours the medium from each well is aspirated and replaced with 200 μl DMSO to dissolve the formazan crystals formed. Absorbances are read by an ELISA plate spectrophotometer at a wavelength of 540 nm. The IC50 is defined as that concentration of drug which decreases absorbance to 50% of that in control (drug-free) cultures. This method is used for the WiDr, HCT-116 and A549 cell lines.

COC(=O)Nc1cn2nc(OCc3cc(OC)c(OC)c(OC)c3)ccc2n1 [Example 1, Methyl N-[6-(3,4,5-trimethoxybenzyloxy)imidazo[1,2-b]pyridazin-2-yl]carbamate]
60 Day Survivors [1]: 1/6 | % ILS [1]: +100% | 60 Day Survivors [2]: 0/6 | % ILS [2]: +92% | IC50 [3]: 30 nM
